One may read the melting point as the temperature of the solid-liquid transition. In turn, `Cc1nc(N2N=C(c3ccc(N)cc3)c3cc4c(cc3CC2C)OCO4)sc1C` (racemic) [Example 65, (±)-5-(4-Aminophenyl)-8-methyl-7-(4,5-dimethyl-thiazol-2-yl)-8,9-dihydro-7H-1,3-dioxolo-[4,5-h][2,3]benzodiazepine] yielded a melting point of 240 to 242 °C.
`CC(=O)Nc1ccc(C2=NN(c3nccs3)[C@H](C)Cc3cc4c(cc32)OCO4)cc1` [Example 123, (R)-5-(4-Acetylaminophenyl)-8-methyl-7-(2-thiazolyl)-8,9-dihydro-7H-1,3-dioxolo[4,5-h][2,3]benzodiazepine] yielded a melting point of 126 °C.
Turning to `CC1Cc2cc3c(cc2C(c2ccc([N+](=O)[O-])cc2)=NN1c1nc(=O)n(C2CC2)s1)OCO3` (racemic) [Example 47, (±)-7-(2-Cyclopropyl-3-oxo-2,3-dihydro-1,2,4-thiadiazol-5-yl)-8-methyl-5-(4-nitrophenyl)-8,9-dihydro-7H-1,3-dioxolo[4,5-h][2,3]benzodiazepine], the melting point lay within 246 to 247 °C.
Compound `CC(=O)Nc1ccc(C2=NN(c3ncccn3)C(C)Cc3cc4c(cc32)OCO4)cc1` (racemic) [Example 128, (±)-5-(4-Acetylaminophenyl)-8-methyl-7-(2-pyrimidinyl)-8,9-dihydro-7H-1,3-dioxolo-[4,5-h][2,3]benzodiazepine] gave a melting point of 162 to 163 °C.
In turn, `Cc1cc(C2=NN(C3=NCCS3)[C@H](C)Cc3cc4c(cc32)OCO4)ccc1N` [Example 163, (R)-5-(4-Amino-3-methylphenyl)-8-methyl-7-(4,5-dihydro-thiazol-2-yl)-8,9-dihydro-7H-1,3-dioxolo-[4,5-h][2,3]benzodiazepine] showed a melting point of 125 to 128 °C.
`Cc1cc(C2=NN(C3=NN=C(C(=O)OCc4ccccc4)[SH]3CN)[C@H](C)Cc3cc4c(cc32)OCO4)ccc1[N+](=O)[O-]` (stereo partly drawn) [Example 145, (R)-7-(5-Benzyloxycarbonyl-aminomethyl-1,3,4-thiadiazol-2-yl)-8-methyl-5-(3-methyl-4-nitrophenyl)-8,9-dihydro-7H-1,3-dioxolo[4,5-h][2,3]benzodiazepine] yielded a melting point of 240 to 243 °C.
Under `CC1Cc2cc3c(cc2C(c2ccc(N)cc2)=NN1c1nnc(-c2ccccc2)s1)OCO3` (racemic) (hydrate or solvate) [Example 91, (±)-5-(4-Aminophenyl)-7-(5-phenyl-1,3,4-thiadiazol-2-yl)-8-methyl-8,9-dihydro-7H-1,3-dioxolo-[4,5-h][2,3]benzodiazepine] stands 228 to 230 °C.
Under `CC1Cc2cc3c(cc2C(c2ccc(N)cc2)=NN1c1nc(C(=O)O)cs1)OCO3` (racemic) [Example 106, (±)-5-(4-Aminophenyl)-7-(4-carboxy-thiazol-2-yl)-8-methyl-8,9-dihydro-7H-1,3-dioxolo-[4,5-h][2,3]benzodiazepine] stands > 260 °C (dec.); under `Cc1nnc(N2N=C(c3cc(C)c(N)c(C)c3)c3cc4c(cc3C[C@H]2C)OCO4)s1` [Example 190, (R)-5-(4-Amino-3,5-dimethylphenyl)-8-methyl-7-(5-methyl-1,3,4-thiadiazol-2-yl)-8,9-dihydro-7H-1,3-dioxolo[4,5-h][2,3]benzodiazepine], 280 to 281 °C; under `CC1SC(N2N=C(c3ccc(N)cc3)c3cc4c(cc3CC2C)OCO4)=NC1=O` (racemic) [Example 72, (±)-5-(4-Aminophenyl)-7-(4,5-dihydro-5-methyl-4-oxo-thiazol-2-yl)-8-methyl-8,9-dihydro-7H-1,3-dioxolo-[4,5-h][2,3]benzodiazepine], 200 to 204 °C.
The same measure for `CC1Cc2cc3c(cc2C(c2ccc(N)cc2)=NN1c1ncnn1C)OCO3` (racemic) [Example 115, (±)-5-(4-Aminophenyl)-8-methyl-7-(2-methyl-2H-1,2,4-triazol-3-yl)-8,9-dihydro-7H-1,3-dioxolo-[4,5-h][2,3]benzodiazepine]: 182 to 183 °C.
In the case of `CC(=O)Nc1ccc(C2=NN(c3ccc(Cl)nn3)C(C)Cc3cc4c(cc32)OCO4)cc1` (racemic) [Example 129, (±)-5-(4-Acetylaminophenyl)-7-(3-chloro-pyridazin-6-yl)-8-methyl-8,9-dihydro-7H-1,3-dioxolo-[4,5-h][2,3]benzodiazepine], the melting point fell in the range of 164 to 170 °C.
Under `C/C=C/c1nnc(N2N=C(c3ccc(N)c(C)c3)c3cc4c(cc3C[C@H]2C)OCO4)s1` [Example 177, (R)-5-(4-Amino-3-methylphenyl)-8-methyl-7-{5-[1-(1E)-propen-1-yl]-1,3,4-thiadiazol-2-yl}-8,9-dihydro-7H-1,3-dioxolo[4,5-h][2,3]benzodiazepine] stands 139 to 143 °C; under `CC1Cc2cc3c(cc2C(c2ccc(N)cc2)=NN1C1=NNC(=O)CS1)OCO3` (racemic) [Example 100, (±)-5-(4-Aminophenyl)-7-(5,6-dihydro-5-oxo-4H-1,3,4-thiadiazin-2-yl)-8-methyl-8,9-dihydro-7H-1,3-dioxolo[4,5-h][2,3]benzodiazepine], 172 to 176 °C; under `CC1Cc2cc3c(cc2C(c2ccc([N+](=O)[O-])cc2)=NN1c1nnc(-c2ccccc2)s1)OCO3` (racemic) [Example 33, (±)-8-Methyl-5-(4-nitrophenyl)-7-(5-phenyl-1,3,4-thiadiazol-2-yl)-8,9-dihydro-7H-1,3-dioxolo[4,5-h][2,3]benzodiazepine], 210 to 212 °C.
The same measure for `Cc1nnc(N2N=C(c3ccc(N)cc3)c3cc4c(cc3C[C@H]2C)OCO4)s1` (hydrate or solvate) [Example 86, (R)-5-(4-Aminophenyl)-8-methyl-7-(5-methyl-1,3,4-thiadiazol-2-yl)-8,9-dihydro-7H-1,3-dioxolo-[4,5-h][2,3]benzodiazepine]: 168 to 170 °C; for `CCOC(=O)c1nnc(N2N=C(c3ccc([N+](=O)[O-])c(C)c3)c3cc4c(cc3C[C@H]2C)OCO4)s1` [Example 144, (R)-7-(5-Ethoxycarbonyl-1,3,4-thiadiazol-2-yl)-8-methyl-5-(3-methyl-4-nitrophenyl)-8,9-dihydro-7H-1,3-dioxolo[4,5-h][2,3]benzodiazepine]: 115 to 118 °C.
`CC(=O)Nc1ccc(C2=NN(c3nccs3)[C@@H](C)Cc3cc4c(cc32)OCO4)cc1` [Example 124, (S)-5-(4-Acetylaminophenyl)-8-methyl-7-(2-thiazolyl)-8,9-dihydro-7H-1,3-dioxolo-[4,5-h][2,3]benzodiazepine] yielded a melting point of 124 to 128 °C.
Under `CC1Cc2cc3c(cc2C(c2ccc(N)cc2)=NN1C1=NCCS1)OCO3` (racemic) [Example 68, (±)-5-(4-Aminophenyl)-7-(4,5-dihydro-thiazol-2-yl)-8-methyl-8,9-dihydro-7H-1,3-dioxolo-[4,5-h][2,3]benzodiazepine] stands 145 to 150 °C.
The same measure for `CC(=O)Nc1ccc(C2=NN(C3=NCCO3)C(C)Cc3cc4c(cc32)OCO4)cc1` (racemic) [Example 127, (±)-5-(4-Acetylaminophenyl)-7-(4,5-dihydro-oxazol-2-yl)-8-methyl-8,9-dihydro-7H-1,3-dioxolo-[4,5-h][2,3]benzodiazepine]: 124 to 128 °C; for `Cc1cc(C2=NN(c3nnc(CO)s3)[C@H](C)Cc3cc4c(cc32)OCO4)ccc1N` [Example 171, (R)-5-(4-Amino-3-methylphenyl)-7-(5-hydroxymethyl-1,3,4-thiadiazol-2-yl)-8-methyl-8,9-dihydro-7H-1,3-dioxolo[4,5-h][2,3]benzodiazepine]: 184 to 186 °C.
The same measure for `CC1Cc2cc3c(cc2C(c2ccc(N)cc2)=NN1c1nncs1)OCO3` (racemic) (hydrate or solvate) [Example 83, (±)-5-(4-Aminophenyl)-8-methyl-7-(1,3,4-thiadiazol-2-yl)-8,9-dihydro-7H-1,3-dioxolo-[4,5-h][2,3]benzodiazepine]: 192 to 194 °C; for `CC1Cc2cc3c(cc2C(c2ccc(N)cc2)=NN1c1nnc(C(F)(F)F)s1)OCO3` (racemic) [Example 90, (±)-5-(4-Aminophenyl)-8-methyl-7-(5-trifluoromethyl-1,3,4-thiadiazol-2-yl)-8,9-dihydro-7H-1,3-dioxolo-[4,5-h][2,3]benzodiazepine]: 216 to 218 °C.
`Cc1nnc(N2N=C(c3ccc(N)cc3)c3cc4c(cc3CC2C)OCO4)s1` (racemic) [Example 85, (±)-5-(4-Aminophenyl)-8-methyl-7-(5-methyl-1,3,4-thiadiazol-2-yl)-8,9-dihydro-7H-1,3-dioxolo-[4,5-h][2,3]benzodiazepine]: the melting point was in the range of 143 to 148 °C.
Under `CC1Cc2ccc(Cl)cc2C(c2ccc(N)cc2)=NN1C1=NC(=O)CS1` (racemic) [Example 80, (±)-1-(4-Aminophenyl)-3-(4,5-dihydro-4-oxo-thiazol-2-yl)-8-chloro-4-methyl-4,5-dihydro-3H-[2,3]benzodiazepine] stands 226 to 228 °C; under `Cc1nc(N2N=C(c3ccc(N)cc3)c3cc4c(cc3CC2C)OCO4)no1` (racemic) [Example 109, (±)-5-(4-Aminophenyl)-8-methyl-7-(5-methyl-1,2,4-oxadiazol-3-yl)-8,9-dihydro-7H-1,3-dioxolo-[4,5-h][2,3]benzodiazepine], 130 to 135 °C.
`Cc1ncc(N2N=C(c3ccc(N)cc3)c3cc4c(cc3CC2C)OCO4)o1` (racemic) [Example 187, (±)-5-(4-Aminophenyl)-8-methyl-7-(2-methyl-1,3-oxazol-5-yl)-8,9-dihydro-7H-1,3-dioxolo-[4,5-h][2,3]benzodiazepine] yielded a melting point of 148 to 150 °C.
The same measure for `Cc1nnc(N2N=C(c3ccc(N)c(C)c3)c3cc4c(cc3CC2C)OCO4)s1` (racemic) [Example 95, (±)-5-(4-Amino-3-methylphenyl)-8-methyl-7-(5-methyl-1,3,4-thiadiazol-2-yl)-8,9-dihydro-7H-1,3-dioxolo-[4,5-h][2,3]benzodiazepine]: 140 to 144 °C; for `CC1=Cc2cc3c(cc2C(c2ccc(C)c(N)c2)=NN1c1nnc(C)s1)OCO3` [Example 96, (±)-5-(3-Amino-4-methylphenyl)-8-methyl-7-(5-methyl-1,3,4-thiadiazol-2-yl)-7H-1,3-dioxolo-[4,5-h][2,3]benzodiazepine]: 125 °C.

Values taken from US20070027143A1, “Novel substituted 2,3-benzodiazepine derivatives” (priority 2003, published 2007).
